# Measured values: patent publication US11053234B2 (GlaxoSmithKline Intellectual Property Development Limited, priority 2016, dated 2021)
# Counter-ions that a name gives are not always drawn.
# Target: T1, haematopoietic prostaglandin D synthase (H-PGDS) (Homo sapiens, UniProt O60760)
# T1 construct: Full length human H-PGDS cDNA (Invitrogen Ultimate ORF 10H13026) was amplified by PCR; 6-His (N); TEV protease cleavage site (N); made in house; host or cells: E. coli BL21 (DE3*), vector pET22b+
# Assay: H-PGDS RapidFire high throughput mass spectrometry assay (conversion of PGH2 to PGD2)
# Type: biochemical
# Conditions: 10 nM H-PGDS, PGH2 formed in situ by COX-2 from arachidonic acid; read-out: Potency Range (mean pIC50) (converted)
# Procedure: H-PGDS RapidFire™ High Throughput Mass Spectrometry Assay
# The H-PGDS RapidFire™ mass spectrometric assay monitors conversion of prostaglandin H2 (PGH2) to prostaglandin D2 (PGD2) by haematopoietic prostaglandin D synthase (H-PGDS). In the assay format described here, the substrate (PGH2) is formed in situ by the action of cyclooxygenase-2 on arachidonic acid. This first step is set up to be fast, and generates a burst of PGH2 at ˜10 μM. The PGH2 is then further converted to PGD2 by the H-PGDS enzyme. […] Plates are then read on the RapidFire™ high throughput solid phase extraction system (Agilent) which incorporates a solid phase extraction step coupled to a triple quadrupole mass spectrometer (AB SCIEX). Relative levels of PGD2 and PGF2α, which acts as a surrogate for substrate, are measured and a percent conversion calculated.
# Expression and Purification of H-PGDS Protein
# Full length human H-PGDS cDNA (Invitrogen Ultimate ORF 10H13026) was amplified by PCR with the addition of a 5′ 6-His tag and TEV protease cleavage site. The PCR product was digested with Ndel and Xhol and ligated into pET22b+ (Merck Novagen®). Expression was carried out in E. coli strain BL21 (DE3*) using auto-induction Overnight Express™ Instant TB medium (Merck Novagen®) supplemented with 1% glycerol. The culture was first grown at 37° C. and the temperature was reduced to 25° C. when OD600 reached 2.0. Cells were harvested by centrifugation after a further 18 hr. 10 g of E. coli cell pellet was suspended to a total volume of 80 mL in lysis buffer (20 mM Tris-Cl pH 7.5, 300 mM NaCl, 20 mM imidazole, 5 mM β-mercaptoethanol, 10% glycerol). 1 mg/mL protease inhibitors (Protease Inhibitor Cocktail Set III, Merck Calbiochem®) and 1 mg/mL lysozyme were added to the cell suspension. The suspension was then sonicated for 5 min (UltraSonic Processor VCX 750, Cole-Parmer Instrument Co.) with a micro probe (50% amplitude, 10 sec on/off) and then centrifuged at 100,000 g for 90 min (at 4° C.). The supernatant was loaded onto a Ni-NTA HiTrap column (5 mL, GE Healthcare, pre-equilibrated in lysis buffer). The column was washed with 10 column volumes of lysis buffer and eluted with lysis buffer containing 500 mM imidazole. The pooled protein peak fractions were concentrated using a 10 kDa centrifugal filter at 3500 g and 4° C. (Amicon Ultra-15 centrifugal filter unit with Ultracel-10 membrane from Millipore). Further purification of the concentrated protein was carried out using gel filtration chromatography on a HiLoad 26/600 Superdex 75 preparative grade column (GE Healthcare Life Sciences) using 50 mM Tris pH 7.5, 50 mM NaCl, 1 mM dithiothreitol, 1 mM MgCl2. Fractions containing the protein were pooled, concentrated as described above, and stored at −80° C.
# Expression and Purification of Cyclooxygenase-2 (COX-2) Protein
# The full length human COX-2 gene (accession number L15326) was amplified by PCR to generate an EcoRI-HindIII fragment containing an in-frame FLAG tag. This was subcloned into pFastBac 1 (Invitrogen). The COX2 FLAG plasmid was recombined into the baculovirus genome according to the BAC-to-BAC protocol described by Invitrogen. Transfection into Spodoptera frugiperda (Sf9) insect cells was performed using Cellfectin (Invitrogen), according to the manufacturer's protocol. […] Cells were harvested using a continuous feed centrifuge run at 2500 g at a rate of approximately 2 L/min with cooling. The resultant cell slurry was re-centrifuged in pots (2500 g, 20 min, 4° C.) and the cell paste was stored at −80° C. […] The suspension was sonicated in 500 mL batches for 8×5 seconds at 10 u amplitude with the medium tip of an MSE probe sonicator and subsequently incubated at 4° C. for 90 min with gentle stirring. The lysate was centrifuged at 12000 rpm for 45 min at 4° C. in a Sorvall SLA1500 rotor. The supernatant (1400 mL) was added to 420 mL of 20 mM Tris-Cl pH 7.4, 150 mM NaCl, 0.1 mM EDTA to reduce the concentration of n-octyl-6-D-glucopyranoside to 1% w/v.
# T1 sequence (O60760 whole entry): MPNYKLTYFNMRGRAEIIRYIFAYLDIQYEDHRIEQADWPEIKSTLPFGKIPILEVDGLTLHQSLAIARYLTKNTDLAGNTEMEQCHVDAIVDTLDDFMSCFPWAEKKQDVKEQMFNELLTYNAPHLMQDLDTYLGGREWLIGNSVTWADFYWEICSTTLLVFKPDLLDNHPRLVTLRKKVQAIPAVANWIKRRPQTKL
row,Compound,IC50 [µM]
1,"CC(=O)c1cnc(NC(=O)[C@H]2C[C@H](Oc3cccc4cccnc34)C2)o1 [Example 174, (trans)-N-(5-Acetvloxazol-2-yl)-3-(quinolin-8-yloxy)cyclobutanecarboxamide]",0.01 to 0.0794
2,"O=C(NC1CN(c2ccc(F)cn2)C1)[C@H]1C[C@H](Oc2cc(F)cc3scnc23)C1 [Example 120, (trans)-3-((6-Fluorobenzo[d]thiazol-4-yl)oxy)-N-(1-(5-fluoropyridin-2-yl)azetidin-3-yl)cyclobutanecarboxamide]",0.01 to 0.0794
3,"Cc1nc2c(OC3CN(C(=O)N[C@H]4CC[C@H](C(C)(C)O)CC4)C3)cccc2s1 [Example 300, N-((trans)-4-(2-Hydroxypropan-2-yl)cyclohexyl)-3-((2-methylbenzo[d]thiazol-4-yl)oxy)azetidine-1-carboxamide]",1.26 to 2
4,"CC(C)(O)[C@H]1CC[C@H](NC(=O)[C@H]2C[C@H](Oc3cc(F)ccc3Cl)C2)CC1 [Example 230, (trans)-3-(2-Chloro-5-fluorophenoxy)-N-((trans)-4-(2-hydroxypropan-2-yl)cyclohexyl)cyclobutanecarboxamide]",0.1 to 1
5,"N#Cc1ccnc(N2CC(NC(=O)N3CC(Oc4cccc5scnc45)C3)C2)c1 [Example 52, 3-(Benzo[d]thiazol-4-yloxy)-N-(1-(4-cyanopyridin-2-yl)azetidin-3-yl)azetidine-1-carboxamide]",0.01 to 0.0794
6,"CC(C)(O)[C@@H]1CC[C@@H](NC(=O)[C@H]2C[C@H](Oc3cc(F)cc4scnc34)C2)CO1 (racemic) [Example 139, Racemic (trans)-3-((6-Fluorobenzo[d]thiazol-4-yl)oxy)-N-((trans)-6-(2-hydroxypropan-2-yl)tetrahydro-2H-pyran-3-yl)cyclobutanecarboxamide]",0.01 to 0.0794
7,"CC(C)(O)[C@H]1CC[C@H](NC(=O)N2CC(C(F)c3cccc4cccnc34)C2)CC1 (mixture of isomers) [Example 256, Racemic 3-(Fluoro(quinolin-8-yl)methyl)-N-((trans)-4-(2-hydroxypropan-2-yl)cyclohexyl)azetidine-1-carboxamide]",0.1 to 1
8,"CNC(=O)c1csc(NC(=O)[C@H]2C[C@H](Oc3cccc4cccnc34)C2)n1 [Example 196, N-Methyl-2-((trans)-3-(quinolin-8-yloxy)cyclobutanecarboxamido)thiazole-4-carboxamide, trifluoroacetic acid salt]",0.01 to 0.0794
9,"O=C(Nc1cccc(N2CCOCC2)c1)[C@H]1C[C@H](Oc2cccc3scnc23)C1 [Example 248, (trans)-3-(Benzo[d]thiazol-4-yloxy)-N-(3-morpholinophenyl)cyclobutanecarboxamide]",0.01 to 0.0794
10,"C[C@]1(O)CC[C@H](NC(=O)[C@H]2C[C@H](Oc3cccc4cccnc34)C2)CC1 [Example 182, (trans)-N-((trans)-4-Hydroxy-4-methylcyclohexyl)-3-(quinolin-8-yloxy)cyclobutanecarboxamide]",0.1 to 1
11,"N#Cc1cnc(NC(=O)[C@H]2C[C@H](Oc3cccc4ccoc34)C2)s1 [Example 261, (trans)-3-(Benzofuran-7-yloxy)-N-(5-cyanothiazol-2-yl)cyclobutanecarboxamide]",0.01 to 0.0794
12,"CC(C)(O)[C@@H]1CC[C@@H](NC(=O)N2CC(Oc3cc(F)cc4scnc34)C2)CO1 (racemic) [Example 127, Racemic 3-((6-Fluorobenzo[d]thiazol-4-yl)oxy)-N-((trans)-6-(2-hydroxypropan-2-yl)tetrahydro-2H-pyran-3-yl)azetidine-1-carboxamide]",0.01 to 0.0794
13,"CN(C)c1ccnc(N2CC(NC(=O)[C@H]3C[C@H](Oc4cccc5scnc45)C3)C2)n1 [Example 75, (trans)-3-(Benzo[d]thiazol-4-yloxy)-N-(1-(4-(dimethylamino)pyrimidin-2-yl)azetidin-3-yl)cyclobutanecarboxamide]",0.01 to 0.0794
14,"O=C(c1csc(NC(=O)[C@H]2C[C@H](Oc3cccc4cccnc34)C2)n1)C1CC1 [Example 194, (trans)-N-(4-(Cyclopropanecarbonyl)thiazol-2-yl)-3-(quinolin-8-yloxy)cyclobutanecarboxamide]",0.01 to 0.0794
15,"CC(C)(O)[C@@H]1CC[C@@H](NC(=O)N2CC(Oc3cccc4scnc34)C2)CO1 (racemic) [Example 104, Racemic 3-(Benzo[d]thiazol-4-yloxy)-N-((trans)-6-(2-hydroxypropan-2-yl)tetrahydro-2H-pyran-3-yl)azetidine-1-carboxamide]",0.01 to 0.0794
16,"CCCCn1nnnc1NC(=O)[C@H]1C[C@H](Oc2cc(F)ccc2OC(F)F)C1 [Example 2, (trans)-N-(1-Butyl-1H-tetrazol-5-yl)-3-(2-(difluoromethoxy)-5-fluorophenoxy)cyclobutanecarboxamide]",0.01 to 0.0794
17,"CS(=O)(=O)N1CCC(NC(=O)[C@H]2C[C@H](Oc3cccc4cccnc34)C2)CC1 [Example 219, (trans)-N-(1-(Methylsulfonyl)piperidin-4-yl)-3-(quinolin-8-yloxy)cyclobutanecarboxamide]",0.1 to 1
18,CCOCc1nc(NC(=O)[C@H]2C[C@H](Oc3cc(F)cc4scnc34)C2)n[nH]1 [Example 335],0.01 to 0.0794
19,"Cc1nccc(N2CC(NC(=O)N3CC(Oc4cc(F)cc5scnc45)C3)C2)n1 [Example 122, 3-((6-Fluorobenzo[d]thiazol-4-yl)oxy)-N-(1-(2-methylpyrimidin-4-yl)azetidin-3-yl)azetidine-1-carboxamide]",0.01 to 0.0794
20,"COc1ccc(F)cc1O[C@H]1C[C@H](C(=O)NC2CN(c3cc(C#N)ccn3)C2)C1 [Example 149, (trans)-N-(1-(4-Cyanopyridin-2-yl)azetidin-3-yl)-3-(5-fluoro-2-methoxyphenoxy)cyclobutanecarboxamide]",< 0.01
21,"O=C(Nc1ccc(N2CCOCC2)cc1)[C@H]1C[C@H](Oc2cccc3scnc23)C1 [Example 243, (trans)-3-(Benzo[d]thiazol-4-yloxy)-N-(4-morpholinophenyl)cyclobutanecarboxamide]",0.01 to 0.0794
22,"CC(C)(O)c1csc(NC(=O)[C@H]2C[C@H](Oc3cccc4scnc34)C2)n1 [Example 55, (trans)-3-(Benzo[d]thiazol-4-yloxy)-N-(4-(2-hydroxypropan-2-yl)thiazol-2-yl)cyclobutanecarboxamide]",0.01 to 0.0794
23,"COc1ccc(F)cc1O[C@H]1C[C@H](C(=O)NC2CCN(C(=O)OC(C)(C)C)C2)C1 (mixture of isomers) [Example 143, tert-butyl 3-((trans)-3-(5-fluoro-2-methoxyphenoxy)cyclobutanecarboxamido)pyrrolidine-1-carboxylate]",0.01 to 0.0794
24,"COc1ccc(F)cc1O[C@H]1C[C@H](C(=O)N[C@H]2CC[C@H](C(C)(C)O)CC2)C1 [Example 168, (trans)-3-(5-Fluoro-2-methoxyphenoxy)-N-((trans)-4-(2-hydroxypropan-2-yl)cyclohexyl)cyclobutanecarboxamide]",0.01 to 0.0794
25,"CC(O)(CO[C@H]1CC[C@H](NC(=O)[C@H]2C[C@H](Oc3cc(F)ccc3OC(F)F)C2)CC1)C1CC1 (mixture of isomers) [Example 11, Racemic (trans)-N-((trans)-4-(2-Cyclopropyl-2-hydroxypropoxy)cyclohexyl)-3-(2-(difluoromethoxy)-5-fluorophenoxy)cyclobutanecarboxamide]",0.01 to 0.0794
